Experimental data from ChEMBL document CHEMBL3885861, “Open TG-GATES”.

Organism: Rattus norvegicus
Experiment: Open TG-GATES - Regimen: Single
Assay type: toxicity, organism-based, Sprague-Dawley
Design: regimen Single, gender Male, age 6 weeks
Settings: in vivo, iv, 0 mg/kg, route intravenous injection, dose level Control; for APTT / Bas / Eos / Fbg / Hb / Ht / Lym / MCH / MCHC / MCV / Mono / Neu / PT / Plat / RBC / Ret / WBC: tissue Blood; for KIDNEY_L / KIDNEY_R / KIDNEY_TOTAL: tissue Kidney; for LIVER: tissue Liver; for A/G / ALP / ALT / AST / BUN / CRE / Ca / Cl / DBIL / GLC / IP / K / LDH / Na / PL / RALB / TBIL / TC / TG / TP / gamma-GTP: tissue Plasma

CN(C)c1ncnc2c1ncn2[C@@H]1O[C@H](CO)[C@@H](N)[C@H]1O [PUROMYCIN AMINONUCLEOSIDE]
TERMINAL_BW (3 h): 211.9 g | APTT (3 h): 22.7 s | Bas (3 h): 0% | Eos (3 h): 1% | Fbg (3 h): 253 mg/dL | Hb (3 h): 12.7 g/dL | Ht (3 h): 37.2% | Lym (3 h): 82.6% | MCH (3 h): 21.3 pg | MCHC (3 h): 34.1% | MCV (3 h): 62.5 fL | Mono (3 h): 2.2% | Neu (3 h): 13.6% | PT (3 h): 16.1 s | Plat (3 h): 120.5 x10_4/uL | RBC (3 h): 594.8 x10_4/ul | Ret (3 h): 7.1% | WBC (3 h): 122.5 x10_2/uL | KIDNEY_L (3 h): 0.9 g | KIDNEY_R (3 h): 0.9 g | KIDNEY_TOTAL (3 h): 1.9 g | LIVER (3 h): 9.5 g | A/G (3 h): 1.2 | ALP (3 h): 1324.8 IU/L | ALT (3 h): 32.6 IU/L | AST (3 h): 66.4 IU/L | BUN (3 h): 13.2 mg/dL | CRE (3 h): 0.2 mg/dL | Ca (3 h): 11 mg/dL | Cl (3 h): 105.2 meq/L | DBIL (3 h): 0.002 mg/dL | GLC (3 h): 191.4 mg/dL | IP (3 h): 7.7 mg/dL | K (3 h): 4.6 meq/L | LDH (3 h): 171.2 IU/L | Na (3 h): 140.4 meq/L | PL (3 h): 130.2 mg/dL | RALB (3 h): 2.9 g/dL | TBIL (3 h): 0.022 mg/dL | TC (3 h): 68 mg/dL | TG (3 h): 69 mg/dL | TP (3 h): 5.3 g/dL | gamma-GTP (3 h): 1 IU/L | TERMINAL_BW (6 h): 212.9 g | APTT (6 h): 22 s | Bas (6 h): 0% | Eos (6 h): 1% | Fbg (6 h): 301.2 mg/dL | Hb (6 h): 12.7 g/dL | Ht (6 h): 37.4% | Lym (6 h): 81.6% | MCH (6 h): 21.8 pg | MCHC (6 h): 34.1% | MCV (6 h): 64 fL | Mono (6 h): 2.6% | Neu (6 h): 14% | PT (6 h): 16 s | Plat (6 h): 122.7 x10_4/uL | RBC (6 h): 584.8 x10_4/ul | Ret (6 h): 8.2% | WBC (6 h): 100.6 x10_2/uL | KIDNEY_L (6 h): 0.9 g | KIDNEY_R (6 h): 0.9 g | KIDNEY_TOTAL (6 h): 1.9 g | LIVER (6 h): 9.4 g | A/G (6 h): 1.3 | ALP (6 h): 1216.4 IU/L | ALT (6 h): 37.8 IU/L | AST (6 h): 70 IU/L | BUN (6 h): 11.4 mg/dL | CRE (6 h): 0.2 mg/dL | Ca (6 h): 11.2 mg/dL | Cl (6 h): 106.4 meq/L | DBIL (6 h): 0 mg/dL | GLC (6 h): 188.8 mg/dL | IP (6 h): 8.3 mg/dL | K (6 h): 4.3 meq/L | LDH (6 h): 177.8 IU/L | Na (6 h): 140.4 meq/L | PL (6 h): 140.2 mg/dL | RALB (6 h): 3 g/dL | TBIL (6 h): 0.022 mg/dL | TC (6 h): 80 mg/dL | TG (6 h): 70.6 mg/dL | TP (6 h): 5.3 g/dL | gamma-GTP (6 h): 1.4 IU/L | TERMINAL_BW (9 h): 212.6 g | APTT (9 h): 21.9 s | Bas (9 h): 0% | Eos (9 h): 1% | Fbg (9 h): 314.6 mg/dL | Hb (9 h): 12.9 g/dL | Ht (9 h): 37.9% | Lym (9 h): 76.2% | MCH (9 h): 20.7 pg | MCHC (9 h): 33.9% | MCV (9 h): 61 fL | Mono (9 h): 2.8% | Neu (9 h): 19.2% | PT (9 h): 16.2 s | Plat (9 h): 126.3 x10_4/uL | RBC (9 h): 621.4 x10_4/ul | Ret (9 h): 7.1% | WBC (9 h): 94.1 x10_2/uL | KIDNEY_L (9 h): 1 g | KIDNEY_R (9 h): 1 g | KIDNEY_TOTAL (9 h): 1.9 g | LIVER (9 h): 9.1 g | A/G (9 h): 1.2 | ALP (9 h): 1259.6 IU/L | ALT (9 h): 38.2 IU/L | AST (9 h): 73.2 IU/L | BUN (9 h): 11.6 mg/dL | CRE (9 h): 0.1 mg/dL | Ca (9 h): 11.1 mg/dL | Cl (9 h): 104.4 meq/L | DBIL (9 h): 0 mg/dL | GLC (9 h): 191.6 mg/dL | IP (9 h): 9.4 mg/dL | K (9 h): 4.3 meq/L | LDH (9 h): 149.4 IU/L | Na (9 h): 140 meq/L | PL (9 h): 136.6 mg/dL | RALB (9 h): 3 g/dL | TBIL (9 h): 0.028 mg/dL | TC (9 h): 73.8 mg/dL | TG (9 h): 71.2 mg/dL | TP (9 h): 5.5 g/dL | gamma-GTP (9 h): 1.4 IU/L | TERMINAL_BW (24 h): 221.6 g | APTT (24 h): 21.5 s | Bas (24 h): 0% | Eos (24 h): 0.8% | Fbg (24 h): 281.4 mg/dL | Hb (24 h): 12.6 g/dL | Ht (24 h): 37.2% | Lym (24 h): 78.8% | MCH (24 h): 21.1 pg | MCHC (24 h): 34% | MCV (24 h): 62.1 fL | Mono (24 h): 2.8% | Neu (24 h): 17% | PT (24 h): 15.9 s | Plat (24 h): 132.3 x10_4/uL | RBC (24 h): 597.8 x10_4/ul | Ret (24 h): 7% | WBC (24 h): 96.2 x10_2/uL | KIDNEY_L (24 h): 0.9 g | KIDNEY_R (24 h): 1 g | KIDNEY_TOTAL (24 h): 1.9 g | LIVER (24 h): 10.4 g | A/G (24 h): 1.3 | ALP (24 h): 1657.8 IU/L | ALT (24 h): 47.4 IU/L | AST (24 h): 78.2 IU/L | BUN (24 h): 19.2 mg/dL | CRE (24 h): 0.2 mg/dL | Ca (24 h): 11 mg/dL | Cl (24 h): 105 meq/L | DBIL (24 h): 0 mg/dL | GLC (24 h): 186.6 mg/dL | IP (24 h): 7 mg/dL | K (24 h): 4.7 meq/L | LDH (24 h): 234.6 IU/L | Na (24 h): 140.4 meq/L | PL (24 h): 136.4 mg/dL | RALB (24 h): 3 g/dL | TBIL (24 h): 0.012 mg/dL | TC (24 h): 68.4 mg/dL | TG (24 h): 88.8 mg/dL | TP (24 h): 5.3 g/dL | gamma-GTP (24 h): 1.2 IU/L
